Patent publication US4619925A, “3-Propenyl cephalosporin derivatives” (priority 1985, dated 1986)
In brackets after ≈: the same amount, converted by molar mass. Like-named read-outs stand apart in the source and are kept apart here.

Tests used:
[1] = test system: S. aureus A9497; assay: MIC, agar dilution technique (Mueller-Hinton Agar); format: cell-based; settings: Staphylococcus aureus, Gp-Ia, penicillin sensitive, read-out: Minimum Inhibitory Concentration
Source text: (§1) Each of these groups of organisms is constituted of five individual strains of microorganism. The Gp-Ia organisms are Gram-positive staphylococci which are sensitive to penicillin. The Gp-Ib organisms are Gram-positive staphylococci which are resistant to penicillin and produce penicillinase. The Gn-Ia organisms are Gram-negative bacteria which are sensitive to ampicillin and cephalothin. The Gn-Ib organisms are Gram-negative bacteria which are resistant to ampicillin and cephalothin.

[2] = test system: S. aureus A9601; assay: MIC, agar dilution technique (Mueller-Hinton Agar); format: cell-based; settings: Staphylococcus aureus; S. aureus A9601; Gp-Ia, penicillin sensitive; read-out: Minimum Inhibitory Concentration
Source text: as §1

[3] = test system: K. pneumoniae D11; assay: MIC, agar dilution technique (Mueller-Hinton Agar); format: cell-based; settings: Klebsiella pneumoniae; K. pneumoniae D11; Gn-Ia, ampicillin and cephalothin sensitive; read-out: Minimum Inhibitory Concentration
Source text: as §1

[4] = test system: S. aureus A9534; assay: MIC, agar dilution technique (Mueller-Hinton Agar); format: cell-based; settings: Staphylococcus aureus, Gp-Ia, penicillin sensitive, read-out: Minimum Inhibitory Concentration
Source text: as §1

[5] = test system: S. aureus Terajima; assay: MIC, agar dilution technique (Mueller-Hinton Agar); format: cell-based; settings: Staphylococcus aureus, Gp-Ia, penicillin sensitive, read-out: Minimum Inhibitory Concentration
Source text: as §1

[6] = test system: E coli RGN-823; assay: MIC, agar dilution technique (Mueller-Hinton Agar); format: cell-based; settings: Escherichia coli, RGN823, Gn-Ib, ampicillin and cephalothin resistant, read-out: Minimum Inhibitory Concentration
Source text: as §1

[7] = test system: E. coli A15148; assay: MIC, agar dilution technique (Mueller-Hinton Agar); format: cell-based; settings: Escherichia coli; E. coli A15148; Gn-Ib, ampicillin and cephalothin resistant; read-out: Minimum Inhibitory Concentration
Source text: as §1

[8] = test system: P. mirabilis A9554; assay: MIC, agar dilution technique (Mueller-Hinton Agar); format: cell-based; settings: Proteus mirabilis; P. mirabilis A9554; Gn-Ia, ampicillin and cephalothin sensitive; read-out: Minimum Inhibitory Concentration
Source text: as §1

[9] = test system: S. aureus Russell; assay: MIC, agar dilution technique (Mueller-Hinton Agar); format: cell-based; settings: Staphylococcus aureus, read-out: Minimum Inhibitory Concentration
Source text: as §1

[10] = test system: K. pneumoniae A20346; assay: MIC, agar dilution technique (Mueller-Hinton Agar); format: cell-based; settings: Klebsiella pneumoniae; K. pneumoniae A20346; Gn-Ib, ampicillin and cephalothin resistant; read-out: Minimum Inhibitory Concentration
Source text: as §1

[11] = test system: E. coli Juhl; assay: MIC, agar dilution technique (Mueller-Hinton Agar); format: cell-based; settings: Escherichia coli; E. coli Juhl; Gn-Ia, ampicillin and cephalothin sensitive; read-out: Minimum Inhibitory Concentration
Source text: as §1

[12] = test system: P. mirabilis A9900; assay: MIC, agar dilution technique (Mueller-Hinton Agar); format: cell-based; settings: Proteus mirabilis; P. mirabilis A9900; Gn-Ia, ampicillin and cephalothin sensitive; read-out: Minimum Inhibitory Concentration
Source text: as §1

[13] = test system: S. aureus Smith; assay: MIC, agar dilution technique (Mueller-Hinton Agar); format: cell-based; settings: Staphylococcus aureus, Gp-Ia, penicillin sensitive, read-out: Minimum Inhibitory Concentration
Source text: as §1

[14] = test system: E. coli A9660; assay: MIC, agar dilution technique (Mueller-Hinton Agar); format: cell-based; settings: Escherichia coli; E. coli A9660; Gn-Ia, ampicillin and cephalothin sensitive; read-out: Minimum Inhibitory Concentration
Source text: as §1

[15] = test system: E. coli A20341-1; assay: MIC, agar dilution technique (Mueller-Hinton Agar); format: cell-based; settings: Escherichia coli, A203411; E. coli A20341-1; Gn-Ib, ampicillin and cephalothin resistant; read-out: Minimum Inhibitory Concentration
Source text: as §1

[16] = test system: S. aureus A9602; assay: MIC, agar dilution technique (Mueller-Hinton Agar); format: cell-based; settings: Staphylococcus aureus; S. aureus A9602; Gp-Ib, penicillin resistant; read-out: Minimum Inhibitory Concentration
Source text: as §1

[17] = test system: S. aureus A15092; assay: MIC, agar dilution technique (Mueller-Hinton Agar); format: cell-based; settings: Staphylococcus aureus, Gp-Ib, penicillin resistant, read-out: Minimum Inhibitory Concentration
Source text: as §1

[18] = test system: S. aureus BX-1633-2; assay: MIC, agar dilution technique (Mueller-Hinton Agar); format: cell-based; settings: Staphylococcus aureus
Source text: as §1

[19] = test system: S. aureus No. 193; assay: MIC, agar dilution technique (Mueller-Hinton Agar); format: cell-based; settings: Staphylococcus aureus, Gp-Ib, penicillin resistant, read-out: Minimum Inhibitory Concentration
Source text: as §1

[20] = test system: K. pneumoniae A20345; assay: MIC, agar dilution technique (Mueller-Hinton Agar); format: cell-based; settings: Klebsiella pneumoniae, Gn-Ib, ampicillin and cephalothin resistant, read-out: Minimum Inhibitory Concentration
Source text: as §1

[21] = Mouse urinary recovery; format: in vivo, mice; settings: 20 mg/kg; for dose excreted at 2 h / dose excreted at 4 h / dose excreted at 6 h / dose excreted at 24 h: mouse, urine, po; for dose excreted at 2 h: 0-2 hr; for dose excreted at 4 h: 2-4 hr; for dose excreted at 6 h: 4-6 hr
[22] = test system: S. pneumoniae Type III; assay: In vitro activity against fastidious bacteria; format: cell-based; settings: Streptococcus pneumoniae; S. pneumoniae Type III; read-out: MIC
Source text: (§2) Table 5 contains comparative data for in vitro antibacterial activity against fastidious bacteria.

[23] = test system: N. meningitidis A21495; assay: In vitro activity against fastidious bacteria; format: cell-based; settings: Neisseria meningitidis; N. meningitidis A21495; read-out: MIC
Source text: as §2

[24] = test system: S. pneumoniae A15069; assay: In vitro activity against fastidious bacteria; format: cell-based; settings: Streptococcus pneumoniae; S. pneumoniae A15069; read-out: MIC
Source text: as §2

[25] = test system: N. meningitidis A20048; assay: In vitro activity against fastidious bacteria; format: cell-based; settings: Neisseria meningitidis; N. meningitidis A20048; read-out: MIC
Source text: as §2

[26] = test system: H. influenzae A21523; assay: In vitro activity against fastidious bacteria; format: cell-based; settings: Haemophilus influenzae; H. influenzae A21523; ampicillin-sensitive (ABPC-S); read-out: MIC
Source text: as §2

[27] = test system: S. aureus Smith and E. coli Juhl; assay: Protective effect in mice infected with a lethal inoculum (overall); format: in vivo
Source text: (§3) The data in Table 2 are results of protective doses (PD50) for mice infected with a lethal inoculum of bacteria. Two different bacteria were employed in the studies, one a Gram-positive organism (S. aureus Smith) and the other a Gram-negative organism (E. coli Juhl). The PD50 is that dose which, when administered to a group of injected mice, results in 50% survival after five days. Normally untreated infected mice die within three days following injection of the lethal inoculum.

[28] = test system: fastidious bacteria; assay: In vitro antibacterial activity against fastidious bacteria (overall); format: cell-based
Source text: as §2

[29] = test system: Gp-Ib organisms (Gram-positive staphylococci resistant to penicillin); assay: In vitro activity, agar dilution, group of five strains; format: cell-based
Source text: as §1

[30] = test system: E. coli Juhl; assay: Protective dose for mice infected with lethal inoculum; format: in vivo; settings: 50% survival after five days
Source text: as §3

[31] = test system: S. aureus Smith; assay: as above; format: in vivo; settings: 50% survival after five days
Source text: as §3

[32] = p.o., 6-24 hr, read-out: Mouse urinary recovery 6-24 hr
[33] = p.o., total, read-out: Mouse urinary recovery Total

C/C=C\C1=C(C(=O)O)N2C(=O)C(NC(=O)[C@H](N)c3ccc(O)cc3)[C@H]2SC1 (stereo partly drawn) [BMY-28100, 7-[D-2-amino-2-(4-hydroxyphenyl)acetamido]-3-[(Z)-1-propen-1-yl]-3-cephem-4-carboxylic acid]
MIC [1]: 0.4 µg/mL (≈ 1.03 µM) | MIC [2]: 0.8 µg/mL (≈ 2.05 µM) | MIC [3]: 0.8 µg/mL (≈ 2.05 µM) | MIC [4]: 0.4 µg/mL (≈ 1.03 µM) | MIC [5]: 0.4 µg/mL (≈ 1.03 µM) | MIC [6]: > 50 µg/mL | MIC [7]: 50 µg/mL (≈ 128 µM) | MIC [8]: 0.8 µg/mL (≈ 2.05 µM) | MIC ([9]; S. aureus Russell, Gp-Ib, penicillin resistant): 0.8 µg/mL (≈ 2.05 µM) | MIC [10]: 25 µg/mL (≈ 64.2 µM) | MIC [11]: 1.6 µg/mL (≈ 4.11 µM) | MIC [12]: 0.8 µg/mL (≈ 2.05 µM) | MIC [13]: 0.4 µg/mL (≈ 1.03 µM) | MIC [14]: 0.8 µg/mL (≈ 2.05 µM) | MIC [15]: 25 µg/mL (≈ 64.2 µM) | MIC [16]: 0.8 µg/mL (≈ 2.05 µM) | MIC [17]: 1.6 µg/mL (≈ 4.11 µM) | MIC ([18]; BX16332, S. aureus BX-1633-2, Gp-Ib, penicillin resistant, read-out: Minimum Inhibitory Concentration): 0.8 µg/mL (≈ 2.05 µM) | MIC [19]: 1.6 µg/mL (≈ 4.11 µM) | MIC [20]: 6.3 µg/mL (≈ 16.2 µM) | dose excreted at 2 h [21]: 60% | dose excreted at 4 h [21]: 5.3% | dose excreted at 6 h [21]: 1.3% | dose excreted at 24 h [21, 32]: 2.3% | dose excreted at 24 h [21, 33]: 69% | MIC [22]: 0.2 µg/mL (≈ 0.514 µM) | MIC [23]: 0.4 µg/mL (≈ 1.03 µM) | MIC [24]: 0.4 µg/mL (≈ 1.03 µM) | MIC [25]: 0.4 µg/mL (≈ 1.03 µM) | MIC [26]: 0.8 µg/mL (≈ 2.05 µM)

C/C=C\C1=C(C(=O)O)N2C(=O)C(NC(=O)[C@H](N)c3cccc(O)c3)[C@H]2SC1 (some centres unmarked) [BMY-28272, 7-[(D)-2-amino-2-(3-hydroxyphenyl)acetamido]-3-[(Z)-1-propenyl]-3-cephem-4-carboxylic acid]
effectiveness in vivo [27]: effectiveness of BMY-28272 in vivo is confirmed | MIC [1]: 0.4 µg/mL (≈ 1.03 µM) | MIC [2]: 0.8 µg/mL (≈ 2.05 µM) | MIC [3]: 0.8 µg/mL (≈ 2.05 µM) | MIC [4]: 0.4 µg/mL (≈ 1.03 µM) | MIC [5]: 0.4 µg/mL (≈ 1.03 µM) | MIC [6]: 50 µg/mL (≈ 128 µM) | MIC [7]: 25 µg/mL (≈ 64.2 µM) | MIC [8]: 0.8 µg/mL (≈ 2.05 µM) | MIC [9]: 1.6 µg/mL (≈ 4.11 µM) | MIC [10]: 50 µg/mL (≈ 128 µM) | MIC [11]: 1.6 µg/mL (≈ 4.11 µM) | MIC [12]: 0.8 µg/mL (≈ 2.05 µM) | MIC [13]: 0.4 µg/mL (≈ 1.03 µM) | MIC [14]: 0.8 µg/mL (≈ 2.05 µM) | MIC [15]: 12.5 µg/mL (≈ 32.1 µM) | MIC [16]: 0.8 µg/mL (≈ 2.05 µM) | MIC [17]: 1.6 µg/mL (≈ 4.11 µM) | MIC ([18]; BX16332, read-out: Minimum Inhibitory Concentration): 1.6 µg/mL (≈ 4.11 µM) | MIC [19]: 1.6 µg/mL (≈ 4.11 µM) | MIC [20]: 6.3 µg/mL (≈ 16.2 µM) | total recovery ratio relative to BMY-28100 and cefaclor ([21]; p.o.): smaller than those of BMY-28100 and cefaclor | rate of excretion relative to BMY-28100 and cefaclor ([21]; p.o., from the 6-24 hours period): slower than BMY-28100 and cefaclor | dose excreted at 2 h [21]: 37% | dose excreted at 4 h [21]: 4.4% | dose excreted at 6 h [21]: 0.4% | dose excreted at 24 h [21, 32]: 8.7% | dose excreted at 24 h [21, 33]: 51% | activity relative to BMY-28100 [28]: almost comparable or better than BMY-28100 | activity relative to cefaclor or cephalexin [28]: much better than cefaclor or cephalexin | MIC [22]: 0.4 µg/mL (≈ 1.03 µM) | MIC [23]: 0.4 µg/mL (≈ 1.03 µM) | MIC [24]: 0.4 µg/mL (≈ 1.03 µM) | MIC [25]: 0.8 µg/mL (≈ 2.05 µM) | MIC [26]: 0.8 µg/mL (≈ 2.05 µM) | activity relative to BMY-28100 [29]: slightly less active than BMY-28100 | activity relative to cephalexin or cefaclor [29]: three times more active than cephalexin or cefaclor | PD50 (protective dose) ([30]; im): 1.9 | PD50 (protective dose) ([30]; po): 2.6 | PD50 (protective dose) ([31]; im): 0.29 | PD50 (protective dose) ([31]; po): 0.17
